Test results from article PMC8011197, “A polo-like kinase modulates cytokinesis and flagella biogenesis in Giardia lamblia” (Parasites & Vectors, 2021).

Key:
Assay type in all cases: cell-based
[1] = system: Giardia lamblia trophozoites; test: Nuclear phenotype (number, position, condensation of nuclei) of Giemsa-stained cells; details: for Percentage of cells, 1N / Percentage of cells, 2N, abnormal / Percentage of cells, 2N, normal / Percentage of cells, 3N / Percentage of cells, 4N / Percentage of cells, >4N: 5 µM GW
Description: For the microscopic observation of cells, the cells were attached to slides, air-dried and fixed with 100% methanol for 10 min, following which they were stained with 10% Giemsa solution for 40 min and washed with distilled water. After mounting with dibutyl phthalate xylene (Sigma-Aldrich, St. Louis, MO, USA), the slides were observed under an Axiovert 200 microscope (Carl Zeiss AG, Oberkochen, Germany). For each condition, at least 300 cells were examined to determine the number and position of the nuclei. Among cells with two nuclei in normal positions, the number of cells showing nuclei condensation was also recorded. Data are presented as the mean ± standard deviation (SD) of three independent experiments. […]

[2] = system: Giardia lamblia trophozoites; test: DNA content / cell cycle phase by flow cytometry (PI)
Description: Both the GW-treated and control G. lamblia cells were analyzed for their DNA content using flow cytometry. Briefly, the harvested cells were resuspended in 50 μl TYI-S-33 culture medium and treated with 150 μl of a cell fixative (1% Triton X-100, 40 mM citric acid, 20 mM dibasic sodium phosphate, 200 mM sucrose; pH 3.0) at room temperature for 5 min. The samples were diluted with 350 μl of diluent buffer [125 mM MgCl2 in phosphate-buffered saline (PBS: 137 mM NaCl, 2.7 mM KCl, 10.1 mM Na2HPO4 and 2 mM KH2PO4, pH 7.4)] and then stored at 4 °C until use. Fixed cells were treated with 2.5 μg RNase A (Sigma-Aldrich) and 10 μg/ml propidium iodide (PI; Sigma-Aldrich) for 30 min at 37 °C. […] Along representative histograms, averages of three independent experiments were presented in bar graphs.
Expression of GlPLK was knocked down using a morpholino, as described previously. A specific morpholino for GlPLK was designed by Gene Tools (Philomath, OR, USA) (see Table 1 for sequences). Nonspecific oligomers were used as a control morpholino (Table 1). Cells (5 × 10^6 in 0.3 ml medium) were treated with the lyophilized morpholino at a final concentration of 100 nM. After electroporation, the cells were grown for various lengths of time, ranging from 12 to 48 h, and analyzed for GlPLK inhibition by western blotting using anti-HA and anti-GlPLK antibodies. The cells at 18 h post-transfection were analyzed for their nuclear phenotypes, including the number and position of nuclei and condensation and flagella length, as described above. In addition, cells transfected with control or anti-glplk morpholino were harvested at 6 or 18 h, and then evaluated with respect to their DNA content by flow cytometry followed by analysis using FlowJo software (FlowJo Llc). […]
These cells were then analyzed by flow cytometry to determine the ploidy of their DNA. Intracellular levels of GlPLK protein in the DMSO-treated, nocodazole-treated and nocodazole/aphidicolin-treated Giardia cells were determined by western blotting. The intracellular levels of glplk transcripts were also measured in these cells.

[3] = system: Giardia lamblia trophozoites; test: Flagella length of Giemsa-stained cells (DIC images, Fiji/ImageJ); details: 5 µM GW
Excerpt: To measure flagella length, we observed Giemsa-stained cells under an Axiovert 200 microscope and analyzed their differential interference contrast (DIC) images using Fiji, an open-source platform for biological-image analysis. Each of four types of flagella were divided into cytoplasmic and membrane-bound categories and then measured using the line Freehand Tracing 0mode in ImageJ software (http://imagej.nih.gov/ij/). […] Data are presented as the mean ± SD of three independent experiments.
Expression of GlPLK was knocked down using a morpholino, as described previously. A specific morpholino for GlPLK was designed by Gene Tools (Philomath, OR, USA) (see Table 1 for sequences). Nonspecific oligomers were used as a control morpholino (Table 1). Cells (5 × 10^6 in 0.3 ml medium) were treated with the lyophilized morpholino at a final concentration of 100 nM. After electroporation, the cells were grown for various lengths of time, ranging from 12 to 48 h, and analyzed for GlPLK inhibition by western blotting using anti-HA and anti-GlPLK antibodies. The cells at 18 h post-transfection were analyzed for their nuclear phenotypes, including the number and position of nuclei and condensation and flagella length, as described above. In addition, cells transfected with control or anti-glplk morpholino were harvested at 6 or 18 h, and then evaluated with respect to their DNA content by flow cytometry followed by analysis using FlowJo software (FlowJo Llc). Transfection was performed at least five times, and the data presented were derived from three independent knockdown experiments.

[4] = system: Giardia lamblia trophozoites; test: Growth inhibition of Giardia trophozoites, hemocytometer count after 24 h; details: Giardia duodenalis, GW 5–15 μM, 2 × 10^4 cells/ml, read-out: IC50, inhibition of growth of G. lamblia
Description: After treatment for 24 h, the number of parasites per milliliter was determined using a hemocytometer. Giardia trophozoites treated with 0.3% dimethyl sulfoxide (DMSO) were used as controls.

Structure (SMILES): COc1cc2ncn(-c3cc(OCc4ccccc4C(F)(F)F)c(C(N)=O)s3)c2cc1OC [GW, GW843682X]
- Percentage of cells, 1N ([1]; 3 h): 0.4±0.1%
- Percentage of cells, 2N, abnormal ([1]; 3 h): 0.7±0.3%
- Percentage of cells, 2N, normal ([1]; 3 h): 97.2±0.8%
- Percentage of cells, 3N ([1]; 3 h): 0.2±0.1%
- Percentage of cells, 4N ([1]; 3 h): 0.7±0.2%
- Percentage of cells, >4N ([1]; 3 h): 0.8±0.3%
- Percentage of cells, 1N ([1]; 6 h): 0.3±0.2%
- Percentage of cells, 2N, abnormal ([1]; 6 h): 0.8±0.3%
- Percentage of cells, 2N, normal ([1]; 6 h): 96.9±0.7%
- Percentage of cells, 3N ([1]; 6 h): 0.3±0.1%
- Percentage of cells, 4N ([1]; 6 h): 0.8±0.2%
- Percentage of cells, >4N ([1]; 6 h): 0.9±0.4%
- Percentage of cells with condensed nuclei ([1]; 5 μM GW, 6 h, compared to DMSO-treated cells): significantly increased
- Percentage of cells, 1N ([1]; 9 h): 1.2±0.1%
- Percentage of cells, 2N, abnormal ([1]; 9 h): 1.3±0.3%
- Percentage of cells, 2N, normal ([1]; 9 h): 91.7±0.1%
- Percentage of cells, 3N ([1]; 9 h): 1.3±0.4%
- Percentage of cells, 4N ([1]; 9 h): 3.3±0.4%
- Percentage of cells, >4N ([1]; 9 h): 1.7±0.3%
- Percentage of cells, 1N ([1]; 12 h): 1.2±0.1%
- Percentage of cells, 2N, abnormal ([1]; 12 h): 1.4±0.6%
- Percentage of cells, 2N, normal ([1]; 12 h): 91.0±1.4%
- Percentage of cells, 3N ([1]; 12 h): 1.5±0.4%
- Percentage of cells, 4N ([1]; 12 h): 3.1±0.9%
- Percentage of cells, >4N ([1]; 12 h): 1.9±0.8%
- Percentage of cells, 1N ([1]; 15 h): 1.1±0.2%
- Percentage of cells, 2N, abnormal ([1]; 15 h): 1.6±0.5%
- Percentage of cells, 2N, normal ([1]; 15 h): 86.1±1.4%
- Percentage of cells, 3N ([1]; 15 h): 1.5±0.3%
- Percentage of cells, 4N ([1]; 15 h): 6.7±0.5%
- Percentage of cells, >4N ([1]; 15 h): 3.1±0.6%
- Percentage of cells, 1N ([1]; 18 h): 0.9±0.3%
- Percentage of cells, 2N, abnormal ([1]; 18 h): 0.9±0.4%
- Percentage of cells, 2N, normal ([1]; 18 h): 88.5±1.2%
- Percentage of cells, 3N ([1]; 18 h): 1.6±0.4%
- Percentage of cells, 4N ([1]; 18 h): 5.4±0.8%
- Percentage of cells, >4N ([1]; 18 h): 2.7±0.5%
- Percentage of cells, 1N ([1]; 24 h): 1.2±0.3%
- Percentage of cells, 2N, abnormal ([1]; 24 h): 1.6±0.5%
- Percentage of cells, 2N, normal ([1]; 24 h): 85.6±0.5%
- Percentage of cells, 3N ([1]; 24 h): 2.3±0.2%
- Percentage of cells, 4N ([1]; 24 h): 6.1±0.5%
- Percentage of cells, >4N ([1]; 24 h): 3.2±0.4%
- Percentage of cells at G2/M phase ([2]; 5 μM GW, 6 and 12 h, control 72–73%): 86%
- Length of cytoplasmic part of posterolateral, anterior and caudal flagella [3]: None of the three flagella showed any significant change
- Length of membrane-bound portion of posterolateral and ventral flagella ([3]; 18 h): did not induce a significant increase
- Length of membrane-bound part of caudal flagella ([3]; 18 h, DMSO 7.2 μm): 11.1 µm
- Length of membrane-bound part of anterior flagella ([3]; 18 h, DMSO 9.0 μm): 11.3 µm
- IC50 [4]: 7 µM

Structure (SMILES): C[C@@]1(CO)[C@H](O)CC[C@@]2(C)[C@H]1CC[C@H]1C[C@@H]3C[C@@]12CC[C@]3(O)CO [aphidicolin]
- Percentage of G1/S-arrested cells after synchronization ([2]; sequentially 100 nM nocodazole, then 6 μM aphidicolin 6 h, Giardia carrying pGlPLK.neo): 86%

Structure (SMILES): COC(=O)Nc1nc2ccc(C(=O)c3cccs3)cc2[nH]1 [nocodazole]
- Percentage of G2/M-phase cells after synchronization ([2]; 100 nM nocodazole, Giardia carrying pGlPLK.neo, 0.01% DMSO control 78%): 91%
